Assay [1] has as its target T1, human tissue antigen 0201 (HLA-A0201) (Homo sapiens, UniProt P04439, D140Y/D185E/D98H/E176V/E277Q/G131W/G231S/I119V/I121R/I166T/I218V/L300P/L318F/N151K/N90K/P208A/P217A/Q86G/Q94H/R138H/R169H/T345S).
T1 construct: T2 cell line is a cell line lacking of the transporters associated with antigen processing (TAP), TAP1 and TAP2; endogenous in cells; host or cells: T2 cell line (TAP1/TAP2-deficient)
Format: cell-based.

For assay [2], the system named is spleen lymphocytes expressing simultaneously CD8+ and IFN-γ+. Set-up: species or system C57BL/6 mice transgenic for human tissue antigen 0201. The following applies: in vivo.

With NLNESLIDL [S1], the “binding to human tissue antigen 0201 on T2 cells (HLA-A2 expression, median fluorescence intensity)” value in assay [1] is recorded as “could bind to the human tissue antigen 0201”.
On the same count and under the same terms, the result for VLNDILSRL [S4] reads “could bind to the human tissue antigen 0201”.
On to ILPDPLKPT [S6], for which, in assay [1], the “binding to human tissue antigen 0201 on T2 cells (HLA-A2 expression, median fluorescence intensity)” value is on record as “could bind to the human tissue antigen 0201” and the “relative binding ability among peptides S1-S10 in the T2 cell binding test” value is recorded as “strongest binding ability”. Moreover, in assay [2], the “induction of antigen-specific cytotoxicity (lymphocytes expressing simultaneously CD8+ and IFN-γ+)” value is reported as “could induce cytotoxicity”; the “induction of cytotoxicity by vaccine containing peptide (proportion of spleen lymphocytes expressing CD8+ and IFN-γ+)” value is listed as “could induce cytotoxicity”.
In the case of VVFLHVTYV [S2], in assay [1], the “binding to human tissue antigen 0201 on T2 cells (HLA-A2 expression, median fluorescence intensity)” value is reported as “could bind to the human tissue antigen 0201” and the “relative binding ability among peptides S1-S10 in the T2 cell binding test” value was “strongest binding ability”. In assay [2], the “induction of antigen-specific cytotoxicity (lymphocytes expressing simultaneously CD8+ and IFN-γ+)” value is recorded as “could induce cytotoxicity”; the “induction of cytotoxicity by vaccine containing peptide (proportion of spleen lymphocytes expressing CD8+ and IFN-γ+)” value was “could induce cytotoxicity”.
Take VLYENQKQI [S5]: the “binding to human tissue antigen 0201 on T2 cells (HLA-A2 expression, median fluorescence intensity)” value in assay [1] is given as “could bind to the human tissue antigen 0201”.

For the origin of these results see patent US20060128628A1, “Human tissue antigen-binding peptides and their amino acid sequences” (priority 2004, published 2006).
